Counter-ions that a name gives are not always drawn.
Target: T1, human neuropeptide Y5 receptor (Homo sapiens, UniProt Q15761)
T1 construct: expressed in transfected cells; host or cells: HEK-293 (stably transfected, G-418 selected); membranes
T1 sequence (Q15761 1-445): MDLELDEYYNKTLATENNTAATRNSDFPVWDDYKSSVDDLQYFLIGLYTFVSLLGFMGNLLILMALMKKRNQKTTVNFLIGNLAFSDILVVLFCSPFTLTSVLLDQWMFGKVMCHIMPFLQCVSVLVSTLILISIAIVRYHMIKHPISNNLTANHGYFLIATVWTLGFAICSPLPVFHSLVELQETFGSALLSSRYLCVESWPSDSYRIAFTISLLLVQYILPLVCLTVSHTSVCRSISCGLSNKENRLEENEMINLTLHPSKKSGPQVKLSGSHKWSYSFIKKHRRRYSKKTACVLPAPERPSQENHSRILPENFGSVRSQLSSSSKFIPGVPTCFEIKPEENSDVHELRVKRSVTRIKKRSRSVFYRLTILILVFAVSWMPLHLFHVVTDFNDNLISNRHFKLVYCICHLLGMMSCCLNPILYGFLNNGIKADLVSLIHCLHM
Assay: NPY5 HTS centrifugation assay: competition with 125I-PYY for binding to membranes of NPY5-transfected HEK293 cells
Conditions: 80 pM 125I-PYY, 1 hr room temperature; for inhibition at 0.3 µM / % Inh @ 300 nM (% Inhibition of 125I-PYY Binding): 300 nM compound; for inhibition at 0.3 µM: read-out: % Inh @ 300 nM (% Inhibition of 125I-PYY Binding); for inhibition at 3 µM / % Inh @ 3 uM (% Inhibition of 125I-PYY Binding): 3 uM compound; for inhibition at 3 µM: read-out: % Inh @ 3 uM (% Inhibition of 125I-PYY Binding)
Experimental: The compounds described in this invention were evaluated for binding to the human neuropeptide Y5 receptor.
Stably transfected cells served as the source for the membranes for the NPY5 receptor binding assay.
NPY5-transfected HEK293 cells were grown to confluence in 150 cm^2 culture dishes. […] Cells were then incubated in phosphate-buffered saline without Calcium and without Magnesium, supplemented with 2 mM EDTA. Cells were incubated for 10 minutes at room temperature and the cells were collected by repetitive pipeting. Cells were formed into pellets and then frozen at −80 until needed. Frozen pellets were homogenized with a polytron at full speed for 12 seconds in a homogenization buffer (20 mM Tris HCl, 5 mM EDTA, pH 7.4). Homogenates were centrifuged for 5 minutes at 4 C at 200 g. Supernatants were transferred to corex tubes and centrifuged for 25 minutes at 28,000 g. Pellets were re-suspended in Binding (20 mM HEPES, 10 mM NaCl, 0.22 mM KH2PO4, 1.3 mM CaCl2, 0.8 mM MgSO4, pH 7.4). Membranes were kept on ice until use.
Compounds to be tested were prepared as 10× stocks in binding buffer and added first to assay tubes (RIA vials, Sarstedt). […] To each tube is added 100 μL of membranes and the mixture is agitated by pipeting 2 times. Samples are incubated for 1 hr at room temperature. Aluminum cast plates (Sarstedt) containing the vials are then centrifuged 10 minutes at 3200 rpm in a Sorvall RT6000. Supernatant is then aspirated. To each vial 400 μL PBS is added and this is then aspirated again. Vials are then put in carrier polypropylene 12×75 tube and counted in gamma counter (Packard). Non-specific binding is determined in the presence of 300 nM NPY. […] These operations are known to those skilled in the art.

Structure (SMILES)	inhibition at 0.3 µM [%]	inhibition at 3 µM [%]	% Inh @ 300 nM (% Inhibition of 125I-PYY Binding) [%]	% Inh @ 3 uM (% Inhibition of 125I-PYY Binding) [%]
O=C(CN1CCC(NS(=O)(=O)c2ccccc2F)CC1)NCC(Cc1cccnc1)c1ccc(F)cc1 (centres unmarked) [Compound 30, N-[2-(4-Fluorophenyl)-3-(3-pyridinyl)propyl]-4-[(2-fluorophenylsulfonyl)amino]-1-piperidineacetamide bis-trifluoroacetate]	100	110		
O=C(CN1CCC(n2c(=O)[nH]c3ccccc32)CC1)NC1CCc2ccccc2C1Cc1cccnc1 (centres unmarked) [Compound 31]			91	100
O=C(CN1CCC2(CC1)C(=O)NCN2c1ccccc1)N[C@H]1CCc2ccccc2[C@H]1Cc1cccnc1 (relative stereo) [Compound 22, 4-Oxo-1-phenyl-N-[cis-1,2,3,4-tetrahydro-1-(3-pyridinylmethyl)-2-naphthalenyl]-1,3,8-triazaspiro[4.5]decane-8-acetamide bis-hydrochloride]	32	70		
NC(=O)NC(CCCCNS(=O)(=O)c1ccccc1)C(=O)NC1CCc2ccccc2C1Cc1cccnc1 (mixture of isomers) [Compound 41]			54	94
O=C(NCC(Cc1cccnc1)c1ccc(F)cc1)[C@H]1CC[C@H](CNS(=O)(=O)c2ccccc2F)CC1 (relative stereo) [Compound 26, trans-N-[2-(4-fluorophenyl)-3-(3-pyridinyl)propyl]-4-[((2-fluorophenylsulfonyl)amino)methyl]-1-cyclohexanamide hydrochloride]	108	110		
NC(CCCCNS(=O)(=O)c1ccccc1)C(=O)NC1CCc2ccccc2C1Cc1cccnc1 (single isomer, unassigned) [Compound 34b]			61	99
CC(C)(C)NC(=O)NC1CCN(CC(=O)NC2CCc3cc(F)ccc3C2Cc2cccnc2)CC1 (centres unmarked) [Compound 53]			84	92
COc1ccc2c(c1)CCC(NC(=O)CN1CCC(n3c(=O)[nH]c4ccccc43)CC1)C2Cc1ccsc1 (centres unmarked) [Compound 61]			66	87
NC(CCCCNS(=O)(=O)c1ccccc1)CNC1CCc2ccccc2C1Cc1cccnc1 (mixture of isomers) [Compound 65]			79	98
O=C(NC(CCCCNS(=O)(=O)c1ccccc1)C(=O)NC1CCc2ccccc2C1Cc1cccnc1)c1ccccc1 (mixture of isomers) [Compound 39]			70	95
O=C(CN1CCC(NS(=O)(=O)c2ccccc2)C1)NC1CCc2cc(F)ccc2C1Cc1cccnc1 (mixture of isomers) [Compound 58]			93	91
COc1ccc2c(c1)CCC(NC(=O)CN1CCC(n3c(=O)[nH]c4ccccc43)CC1)C2Cc1cnc[nH]1 (centres unmarked) [Compound 73]			32	63
O=C(CN1CCC(n2c(=O)[nH]c3ccccc32)CC1)N[C@H]1CCc2cc(O)ccc2[C@H]1Cc1cccnc1 (relative stereo) [Compound 23, 4-(2,3-Dihydro-2-oxo-1H-benzimidazol-1-yl)-N-[cis-1,2,3,4-tetrahydro-6-hydroxy-1-(3-pyridinylmethyl)-2-naphthalenyl]-1-piperidineacetamide bis-hydrochloride]	96	100		
O=C(CN1CCC(NC(=O)c2ccccc2)C1)NC1CCc2cc(F)ccc2C1Cc1cccnc1 (mixture of isomers) [Compound 60]			86	109
CC(C)(C)OC(=O)NC1CCN(CC(=O)NC2CCc3cc(F)ccc3C2Cc2cccnc2)CC1 (centres unmarked) [Compound 54]			99	100
COc1ccc2c(c1)CCC(NC(=O)CN1CCC(n3c(=O)[nH]c4ccccc43)CC1)C2 (centres unmarked) [Compound 82]			63	85

Structure (SMILES)	inhibition at 0.3 µM [%]	inhibition at 3 µM [%]	% Inh @ 300 nM (% Inhibition of 125I-PYY Binding) [%]	% Inh @ 3 uM (% Inhibition of 125I-PYY Binding) [%]
O=C(CN1CCC(NC(=O)Nc2ccccc2)CC1)NC1CCc2ccccc2C1Cc1cccnc1 (centres unmarked) [Compound 51]			85	102
CN(C)C(CCCCNS(=O)(=O)c1ccccc1)C(=O)NC1CCc2ccccc2C1Cc1cccnc1 (single isomer, unassigned) [Compound 43a]			84	93
CC(C)(C)OC(=O)NC1CCN(CC(=O)NC2CCc3cc(F)ccc3C2Cc2cccnc2)C1 (centres unmarked) [Compound 55]			96	106
CN(C)C(CCCCNS(=O)(=O)c1ccccc1)C(=O)NC1CCc2ccccc2C1Cc1cccnc1 (single isomer, unassigned) [Compound 43b]			62	86
CC(=O)NC(CCCCNS(=O)(=O)c1ccccc1)C(=O)NC1CCc2ccccc2C1Cc1cccnc1 (single isomer, unassigned) [Compound 38a]			80	104
CC(C)(C)OC(=O)NC1CCN(CC(=O)NC2CCc3cc(F)ccc3C2Cc2cccnc2)C1 (mixture of isomers) [Compound 56]			88	94
O=C(CN1CCC(NC(=O)Nc2ccccc2)CC1)NC1CCc2cc(F)ccc2C1Cc1cccnc1 (centres unmarked) [Compound 45]			68	95
CC(C)(C)OC(=O)NC1CCN(CC(=O)NC2CCc3cc(F)ccc3C2Cc2cccnc2)C1 (mixture of isomers) [Compound 57]			87	93
O=C(CN1CCC(NS(=O)(=O)c2ccccc2)CC1)NC1CCc2cc(F)ccc2C1Cc1cccnc1 (centres unmarked) [Compound 48]			97	103
O=C(CN1CCC(n2c(=O)[nH]c3ccccc32)CC1)NCC(Cc1cccnc1)c1ccc(O)cc1 (centres unmarked) [Compound 87]			97	96
O=C(CN1CCC(NC(=O)c2ccccc2)CC1)NCC(Cc1cccnc1)c1ccc(F)cc1 (centres unmarked) [Compound 92]			92	104
O=C(Cc1ccccc1)NC1CCN(CC(=O)NC2CCc3cc(F)ccc3C2Cc2cccnc2)CC1 (centres unmarked) [Compound 47]			91	98
CCNC(=O)NC(CCCCNS(=O)(=O)c1ccccc1)C(=O)NC1CCc2ccccc2C1Cc1cccnc1 (mixture of isomers) [Compound 40]			21	92
COc1ccc2c(c1)CCC(NC(=O)[C@H](CCCCNS(=O)(=O)c1ccccc1F)NC(C)=O)C2Cc1cccnc1 (stereo partly drawn) [Compound 10, (2S)-2-(Acetylamino)-6-[(2-fluorophenylsulfonyl)amino]-N-[cis-1,2,3,4-tetrahydro-6-methoxy-1-(3-pyridinylmethyl)-2-naphthenyl]hexanamide bis-hydrochloride]	60	96		
COc1ccc2c(c1)CC[C@H](NC(=O)CN1CCC(n3c(=O)[nH]c4ccccc43)CC1)[C@@H]2Cc1cccnc1 (relative stereo) [Compound 19, 4-(2,3-Dihydro-2-oxo-1H-benzimidazol-1-yl)-N-[cis-1,2,3,4-tetrahydro-6-methoxy-1-(3-pyridinylmethyl)-2-naphthalenyl]-1-piperidineacetamide Bis-hydrochloride]	69	101		

From patent publication US7071195B2, “Amine and amide derivatives as ligands for the neuropeptide Y Y5 receptor useful in the treatment of obesity and other disorders” (Ortho-McNeil Pharmaceutical, Inc., priority 1999, dated 2006)
